Laboratory results taken from patent US20260176320A1, “MODULATORS OF G-PROTEIN COUPLED RECEPTORS” (priority 2018, published 2026).

Key:
GLP-1R [1] = target: T1, GLP-1R (Homo sapiens, UniProt P43220); assay: PathHunter β-arrestin assay; assay type: cell-based
Method in brief: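 Recruitment of β-arrestin is measured by luminescence after cells, plated overnight, receive serially diluted agonist for 90 min at 37 °C in medium with 0.2% BSA. Detection reagent then develops for 3 h at room temperature, protected from light.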

mice [2] = assay: Conditioned taste aversion (CTA) in mice; assay type: in vivo, mouse; conditions: s.c., 30 nmol/kg, saccharine preference vs vehicle
Method: A value of CTA=0.0-0.6 indicates significant aversion to a compound. The conditioned taste aversion assay measures the preference for a dilute saccharin solution that is associated with compound administration.
One week before start of experiment (Day-7), animals were transferred to single house double grommet cages. A 50 ml water bottle was placed, and consistently replaced when refilled in the same grommet to habituate the animal to a “water” side. After 7 days of baseline water consumption, animals began the taste preference procedure. On Day 1, the animals were weighed and deprived of water at […]. On acquisition day (Day 2), mice had access to a single bottle containing 0.15% saccharin solution, on the opposite side to the “water” habituated side and allowed to consume for 3 h, from 6 pm until 9 pm. The saccharine bottles were then removed and weighed to record the 3 h consumption. […] On Day 3, the water was removed and weighed at 6 pm. On Day 4, both saccharine and water bottles were weighed and returned simultaneously to respective grommet at 6 pm. On Day 5, the bottles were removed at 6 pm and weighed. Saccharine consumption was measured as a percent of the total amount of fluid consumed. The reduction of saccharin consumption during the retrieval was used as a measure of CTA strength. Liraglutide and semaglutide were used as positive controls.

GLP-1R [3] = target: T1, GLP-1R; assay: HitHunter cAMP assay (GLP-1R); assay type: cell-based
Method in brief: (§1)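 Agonist stimulation lasts 30 min at room temperature on 10,000 cells per well, with phosphodiesterase blocked by 625 μM IBMX. Accumulated cAMP is quantified by competitive antibody luminescence after overnight development.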

GIP-R = target: T2, GIP-R (Homo sapiens, UniProt P48546); assay: HitHunter cAMP assay (GIP-R); assay type: cell-based
T2 sequence (P48546 22-466): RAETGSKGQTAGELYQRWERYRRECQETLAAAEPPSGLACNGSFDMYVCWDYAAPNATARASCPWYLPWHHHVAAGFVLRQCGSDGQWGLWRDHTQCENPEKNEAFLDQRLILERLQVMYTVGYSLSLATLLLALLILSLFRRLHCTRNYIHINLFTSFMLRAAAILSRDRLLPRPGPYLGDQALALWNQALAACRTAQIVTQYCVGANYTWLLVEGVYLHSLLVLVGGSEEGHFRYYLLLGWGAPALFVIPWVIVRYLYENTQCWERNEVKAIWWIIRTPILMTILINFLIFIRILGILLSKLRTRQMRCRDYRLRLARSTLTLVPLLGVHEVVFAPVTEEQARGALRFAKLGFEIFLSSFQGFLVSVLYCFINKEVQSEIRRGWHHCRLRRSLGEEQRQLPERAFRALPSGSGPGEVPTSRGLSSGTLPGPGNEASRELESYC
Method in brief: as §1

mice [4] = assay: Glucose tolerance test (GTT); assay type: in vivo, mouse; conditions: 24 h GTT, s.c., dose range 2-5 nmol/kg, percent of vehicle
Method in brief: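 Compounds diluted in PBS from 1 mM DMSO stocks and given subcutaneously 15 min (5-6 h fast), 4 h (16 h overnight fast), 16 h or 24 h before intraperitoneal glucose (2 g/kg). Tail blood glucose read at 10–120 min post-glucose, at least 6 mice per time-point. Glucose AUC over time determined.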

mice [5] = conditions: general statement; cited from earlier work
GLP-1R [6] = target: T1, GLP-1R; conditions: general statement; cited from earlier work

T1 sequence (P43220 24-463): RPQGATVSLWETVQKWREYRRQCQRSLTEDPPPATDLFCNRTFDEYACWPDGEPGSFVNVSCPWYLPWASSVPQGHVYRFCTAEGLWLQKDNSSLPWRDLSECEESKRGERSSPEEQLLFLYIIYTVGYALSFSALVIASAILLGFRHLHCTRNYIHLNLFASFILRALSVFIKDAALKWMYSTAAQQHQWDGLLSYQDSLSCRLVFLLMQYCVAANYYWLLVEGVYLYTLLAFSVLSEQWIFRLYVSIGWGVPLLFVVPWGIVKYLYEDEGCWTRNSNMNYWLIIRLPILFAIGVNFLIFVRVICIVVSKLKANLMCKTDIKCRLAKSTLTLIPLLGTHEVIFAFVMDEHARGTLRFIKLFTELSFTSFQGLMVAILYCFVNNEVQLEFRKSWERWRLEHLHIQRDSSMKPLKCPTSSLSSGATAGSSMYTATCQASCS

With `CCCCCCCCCCCCCCCC(=O)N[C@@H](CCC(=O)NCCCC[C@H](NC(=O)[C@H](CO)NC(=O)[C@@H]1CCCN1C(=O)[C@@H]1CCCN1C(=O)[C@@H]1CCCN1C(=O)[C@H](C)NC(=O)CNC(=O)[C@H](CO)NC(=O)[C@H](CO)NC(=O)[C@@H]1CCCN1C(=O)CNC(=O)CNC(=O)[C@H](C)NC(=O)[C@H](CC(C)C)NC(=O)[C@H](CC(C)C)NC(=O)[C@H](Cc1c[nH]c2ccccc12)NC(=O)[C@H](CC(N)=O)NC(=O)[C@@H](NC(=O)[C@H](Cc1ccccc1)NC(=O)[C@H](CCC(=O)O)NC(=O)C(C)(C)NC(=O)[C@H](C)NC(=O)[C@H](C)NC(=O)[C@H](CCC(N)=O)NC(=O)[C@H](CCCCN)NC(=O)[C@H](CC(=O)O)NC(=O)[C@H](CC(C)C)NC(=O)[C@H](Cc1ccc(O)cc1)NC(=O)[C@@H](NC(=O)[C@H](CO)NC(=O)[C@H](Cc1ccc(O)cc1)NC(=O)[C@H](CC(=O)O)NC(=O)[C@H](CO)NC(=O)[C@@H](NC(=O)[C@H](Cc1ccccc1)NC(=O)[C@@H](NC(=O)CNC(=O)[C@H](CCC(=O)O)NC(=O)CCNC(=O)CN1CCCC1=O)[C@@H](C)O)[C@@H](C)O)[C@@H](C)CC)C(C)C)C(N)=O)C(=O)O` [Compound 264] the EC50 (GLP-1R [1]) was less than 10 nM, the CTA score (mice [2]) was 1 (Score 1 = 0-25%) and the EC50 (GLP-1R [3]) was less than 0.1 nM. The Emax (GLP-1R [3]; read-out: (Emax) GLP-1R) was 100%, the EC50 (GIP-R; EC50 GIP-R/nM, Table 3A, cAMP) was 1 to 10 nM and the Emax (GIP-R; read-out: (Emax) GIP-R) was 90%. For the same molecule, the AUC score (mice [4]) was 3 (AUC score 3 = 51-75%).
In the case of `CCCCCCCCCCCCCCCC(=O)N[C@@H](CCC(=O)NCCCC[C@H](NC(=O)[C@H](C)NC(=O)[C@H](C)NC(=O)[C@H](CCC(N)=O)NC(=O)CNC(=O)[C@H](CCC(=O)O)NC(=O)[C@H](CC(C)C)NC(=O)[C@H](Cc1ccc(O)cc1)NC(=O)[C@H](CO)NC(=O)[C@H](CO)NC(=O)[C@@H](NC(=O)[C@H](CC(=O)O)NC(=O)[C@H](CO)NC(=O)[C@@H](NC(=O)[C@H](Cc1ccccc1)NC(=O)[C@@H](NC(=O)CNC(=O)[C@H](CCC(=O)O)NC(=O)[C@H](C)NC(=O)[C@@H](N)Cc1cnc[nH]1)[C@@H](C)O)[C@@H](C)O)C(C)C)C(=O)N[C@@H](CCC(=O)O)C(=O)N[C@@H](Cc1ccccc1)C(=O)N[C@H](C(=O)N[C@@H](C)C(=O)N[C@@H](Cc1c[nH]c2ccccc12)C(=O)N[C@@H](CC(C)C)C(=O)N[C@H](C(=O)N[C@@H](CCCNC(=N)N)C(=O)NCC(=O)N[C@@H](CCCNC(=N)N)C(=O)NCC(=O)O)C(C)C)[C@@H](C)CC)C(=O)O` [Liraglutide, liraglutide], the “signal in conditioned taste aversion models” value (mice [5]) is given as “strong signal in conditioned taste aversion models”.
In the case of glucagon-like peptide-1 [GLP-1], the β-arrestin recruitment (GLP-1R [6]) is given as “potent recruiters of β-arrestin”.
